Source: paper PMC8480782, “Efficient Dimerization Disruption of Leishmania infantum Trypanothione Reductase by Triazole-phenyl-thiazoles” (Journal of Medicinal Chemistry, 2021)

Legend:
[1] = Cytotoxicity in THP-1 monocyte-derived macrophages (LDH activity); assay type: cell-based, human; conditions: human; 75 μM (maximum concentration assayed); read-out: Cell viability of amastigote-infected THP-1 monocyte-derived macrophages at 75 μM
Description: THP-1 cells were grown in RPMI-1640 medium (Gibco, Leiden, The Netherlands) supplemented with 10% heat-inactivated FCS, antibiotics, 10 mM HEPES, 2 mM glutamine, and 1 mM sodium pyruvate, pH 7.2, at 37 °C and 5% CO2.
THP-1 monocytes were seeded in a 48-well plate at a concentration of 5 × 10^5 cells/mL (250 μL/well) in RPMI complete medium supplemented with phorbol 12-myristate 13-acetate (PMA) (100 ng/mL). Differentiation of THP-1 monocytes to macrophages was allowed for 24 h at 37 °C and 5% CO2. THP-1-derived macrophages were infected with GFP-expressing axenic amastigotes at 5 × 10^6 parasites/mL in RPMI complete medium for 24 h (250 μL/well). Extracellular amastigotes were washed twice with PBS. The remaining extracellular parasites were challenged for 24 h with THP-1 medium supplemented with 10% horse serum (Gibco) instead of FCS. Cells were washed twice with PBS, and treatments were performed in 250 μL of fresh RPMI medium supplemented with 10% horse serum for 72 h at 37 °C and 5% CO2. Afterward, treatments were removed by two PBS washes. Lysis of infected cells was performed with 120 μL of SDS 0.005% (w/v) in PBS. After a 30 min incubation at 37 °C, lysis was stopped by adding RPMI complete medium with PI at 20 μg/mL (120 μL/well). The lysates were transferred to a 96-well plate (200 μL/well), and the GFP^+ amastigotes extracted from the infected cells were acquired by a Beckman Coulter FC500 flow cytometer. Each sample (100 μL) was acquired for 20 s.
Cytotoxicity of THP-1 infected macrophages was determined using an in-house developed lactate dehydrogenase (LDH) activity assay. LDH activity assays from the remaining cell lysates (100 μL/well) were carried out at 37 °C in 250 μL of Tris/HCl buffer (pH 8.9, 50 mM) containing DL-lactate (840 mM), NAD^+ (450 μM), 1-methoxyphenazine methosulfate (45 μM), and nitro blue tetrazolium chloride (40 μM). The color intensity of the generated formazan dye was monitored at 570 nm using an EnSpire Multimode Plate Reader (PerkinElmer, Waltham, MA). CC50 values were calculated using a nonlinear regression model with GraFit 6 software (Erithacus, Horley, Surrey, U.K.).

[2] = target: T1, human glutathione-disulfide reductase (hGR) (Homo sapiens, UniProt P00390); assay: hGR oxidoreductase activity, DTNB-coupled assay; assay type: biochemical
T1 construct: HIS (vector pRSETA); made in house
T1 sequence (P00390 44-522): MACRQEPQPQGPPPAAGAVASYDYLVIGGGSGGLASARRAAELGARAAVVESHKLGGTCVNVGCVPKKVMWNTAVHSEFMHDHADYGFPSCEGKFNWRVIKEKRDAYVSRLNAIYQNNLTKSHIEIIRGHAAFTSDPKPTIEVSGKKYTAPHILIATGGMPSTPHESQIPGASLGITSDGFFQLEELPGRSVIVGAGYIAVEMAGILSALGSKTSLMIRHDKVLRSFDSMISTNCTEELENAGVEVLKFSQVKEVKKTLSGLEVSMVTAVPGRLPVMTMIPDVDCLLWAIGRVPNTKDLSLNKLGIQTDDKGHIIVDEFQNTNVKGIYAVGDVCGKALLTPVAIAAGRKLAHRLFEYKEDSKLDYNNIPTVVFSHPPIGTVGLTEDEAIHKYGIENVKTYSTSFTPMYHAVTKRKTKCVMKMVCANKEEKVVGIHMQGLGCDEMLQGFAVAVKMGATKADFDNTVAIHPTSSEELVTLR
Text: The DNA coding sequences for Homo sapiens GR, T. brucei TryR, and T. congolense TryR were polymerase chain reaction (PCR)-amplified and cloned in the pRSETA plasmid. The DNA coding for hGR (transcript variant 1; NCBI Reference Sequence: NM_000637.5) was purchased from GeneScript. Genomic DNA from T. congolense parasites was kindly provided by Dr. Stefan Magez (University of Vrije, Brussels). Genomic DNA from the T. brucei S16 cell line was kindly provided by José M. Pérez-Victoria. Instituto de Parasitología y Biomedicina “López—Neyra” CSIC. HIS-tagged recombinant T. brucei and T. congolense TryRs (TbTryR and TcoTryR, respectively) were purified from E. coli as already explained for LiTryR.
hGR oxidoreductase activity was determined spectrophotometrically using a DTNB-coupled assay. Briefly, reactions were carried out at 37 °C in 250 μL of HEPES buffer (pH 7.5, 40 mM) containing EDTA (1 mM), NADP^+, (60 μM), DTNB (150 μM), oxidized glutathione (50 μM), NADPH (300 μM), glycerol (0.02%), DMSO (1.75%), and recombinant hGR (7 nM). […] TNB concentration was obtained by multiplying the absorbance values by 100 (50 μM TNB generates 0.5 arbitrary units of absorbance at 412 nm). All of the assays were conducted in at least three independent experiments. Data were analyzed using a nonlinear regression model with GraFit 6 software (Erithacus, Horley, Surrey, U.K.).

SMILES	viability at 72 h, 75 µM [1]	inhibitory activity against hGR [2]
NCCCCc1cn(-c2ccc(-c3nc(CCc4ccc5c(c4)CCCN5)cs3)c(OCCN3CCNC3=O)c2)nn1.O=C(O)C(F)(F)F.O=C(O)C(F)(F)F [12q]	67%	
NCCCCc1cn(-c2ccc(-c3nc(-c4ccccc4)cs3)c(OCCN3CCNC3=O)c2)nn1.O=C(O)C(F)(F)F [12n]		none of these compounds showed any inhibitory activity
NCCCCc1cn(-c2ccc(-c3nc(-c4ccccc4)c(-c4ccccc4)s3)c(OCCN3CCNC3=O)c2)nn1.O=C(O)C(F)(F)F [19a, 1-(2-(5-(4-(4-Ammoniobutyl)-1H-1,2,3-triazol-1-yl)-2-(4,5-diphenylthiazol-2-yl)phenoxy)ethyl)imidazolidin-2-one 2,2,2-Trifluoroacetate]		none of these compounds showed any inhibitory activity
NCCCc1cn(-c2ccc(-c3nc(CCc4ccc(-c5ccccc5)cc4)cs3)c(OCCN3CCNC3=O)c2)nn1.O=C(O)C(F)(F)F [12i]	100%	
NCCCCc1cn(-c2ccc(-c3nc(-c4ccc(Oc5ccccc5)cc4)c(-c4ccccc4)s3)c(OCCN3CCNC3=O)c2)nn1.O=C(O)C(F)(F)F [19c, 1-(2-(5-(4-(4-Ammoniobutyl)-1H-1,2,3-triazol-1-yl)-2-(4-([4-phenyloxyphenyl]-1-yl)-5-phenylthiazol-2-yl)phenoxy)ethyl)imidazolidin-2-one 2,2,2-Trifluoroacetate]	63%	
NCCCCc1cn(-c2ccc(-c3nc(CCc4ccc(-c5ccccc5)cc4)cs3)c(OCCN3CCNC3=O)c2)nn1.O=C(O)C(F)(F)F [12c, 1-(2-(2-(4-(2-([1,1′-Biphenyl]-4-yl)ethyl)thiazol-2-yl)-5-(4-(4-ammoniumbutyl)-1H-1,2,3-triazol-1-yl)phenoxy)ethyl)imidazolidin-2-one 2,2,2-Trifluoroacetate]	100%	
NCCCCc1cn(-c2ccc(-c3nc(CCc4ccc5c(c4)CCO5)cs3)c(OCCN3CCNC3=O)c2)nn1.O=C(O)C(F)(F)F [12r]		none of these compounds showed any inhibitory activity
